From patent US20170275270A1, “BENZYL SUBSTITUTED INDAZOLES” (Bayer Pharma Aktiengesellschaft, priority 2014, published 2017)
Counter-ions that a name gives are not always drawn. Like-named read-outs stand apart in the source and are kept apart here.

Key:
[1] = target: T1, catalytic domain of human Bub1 (amino acids 704-1085) (Homo sapiens, UniProt O43683); experiment: Bub1 kinase assay (TR-FRET); format: biochemical
T1 construct: catalytic domain of human Bub1 (amino acids 704-1085); His6 (N); made in house; host or cells: Hi5 insect cells
Procedure, shortened: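 Compounds from 2 mM DMSO stocks, serially diluted 1:3.4, incubated with enzyme at 22° C for 60 min. Stopped with EDTA, then 1 h with streptavidin-XL665, anti-phosphoserine antibody and Eu-labelled anti-mouse IgG. Phosphorylated biotin-peptide read by TR-FRET; IC50 by 4-parameter logistic fit.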

Bub1 = Bub1 (Homo sapiens, UniProt O43683); experiment: Formation-Assay: phosphorylation status of histone 2A by inhibition of kinase activity of Bub1; format: cell-based; details: Biological Assay 4.1: H2A Formation IC50, co-treatment with Nocodazole 1 μg/ml, 16 h
Procedure, shortened: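 Cells co-treated 16 h with Nocodazole (1 μg/ml) and compound (3 nM–10 μM), then fixed and immunostained for phospho-H2A, read by infrared imaging (800 nm) normalised to cell stain (700 nm). Nocodazole-only set as 100%, untreated cells as 0%.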

HeLa = experiment: Proliferation assay (HeLa cell line); details: Homo sapiens, 96 h, read-out: Biological Assay 2: Proliferation assay (HeLa cell line) median IC50;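 also: crystal violet staining of cell number, scaled between a plate stained before dosing (0%) and cells left untreated (100%), compounds tested at 0.001-10 µM, IC50 via 4-parameter fit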
Experimental: Cultivated tumor cells (cells were ordered from ATCC, except HeLa-MaTu and HeLa-MaTu-ADR, which were ordered from EPO-GmbH, Berlin) were plated at a density of 1000 to 5000 cells/well, depending on the growth rate of the respective cell line, in a 96-well multititer plate in 200 μL of their respective growth medium supplemented 10% fetal calf serum. After 24 hours, the cells of one plate (zero-point plate) were stained with crystal violet (see below), while the medium of the other plates was replaced by fresh culture medium (200 μL), to which the test substances were added in various concentrations (0 μM, as well as in the range of 0.001-10 μM; the final concentration of the solvent dimethyl sulfoxide was 0.5%). The cells were incubated for 4 days in the presence of test substances. Cell proliferation was determined by staining the cells with crystal violet: the cells were fixed by adding 20 μL measuring point of an 11% glutaric aldehyde solution for 15 minutes at room temperature. After three washing cycles of the fixed cells with water, the plates were dried at room temperature. The cells were stained by adding 100 μL/measuring point of a 0.1% crystal violet solution (pH 3.0). After three washing cycles of the stained cells with water, the plates were dried at room temperature. The dye was dissolved by adding 100 μl/measuring point of a 10% acetic acid solution. […] The change of cell number, in percent, was calculated by normalization of the measured values to the absorbtion values of the zero-point plate (=0%) and the absorbtion of the untreated (0 μm) cells (=100%). The IC50 values were determined by means of a 4 parameter fit.

[2] = test system: HeLa human cervical tumor cells; experiment: Proliferation assay (HeLa+Paclitaxel); details: read-out: Biological Assay 3: HeLa + Paclitaxel IC50, 3 nM paclitaxel, crystal violet;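 also: compounds at 0.001-10 µM added 4 h after paclitaxel, 92 h exposure, absorbance normalized to zero-point plate (0%) and untreated cells (100%), IC50 from 4-parameter fit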
Experimental: Proliferation Assay (HeLa+Paclitaxel):
Cultivated HeLa human cervical tumor cells (DSMZ ACC-57) were plated at a density of 3000 cells/well in a 96-well multititer plate in 200 μL of growth medium supplemented 10% fetal calf serum. After 24 hours, the cells of one plate (zero-point plate) were stained with crystal violet (see below). The medium of the other plates was supplemented with 3 nM of paclitaxel (Sigma-Aldrich) and the cells were incubated at 37° C. After 4 hours the test substances were added in various concentrations (0 μM, as well as in the range of 0.001-10 μM; the final concentration of the solvent dimethyl sulfoxide was adjusted to 0.1%) using a Hewlett-Packard HP D300 Digital Dispenser. The cells were incubated for another 92 hours at 37° C. in the presence of test substances. Cell proliferation was determined by staining the cells with crystal violet: the cells were fixed by adding 20 μL/measuring point of an 11% glutaric aldehyde solution for 15 minutes at room temperature. After three washing cycles of the fixed cells with water, the plates were dried at room temperature. The cells were stained by adding 100 μL/measuring point of a 0.1% crystal violet solution (pH 3.0). After three washing cycles of the stained cells with water, the plates were dried at room temperature. The dye was dissolved by adding 100 μL/measuring point of a 10% acetic acid solution. […] The change of cell number, in percent, was calculated by normalization of the measured values to the absorbtion values of the zero-point plate (=0%) and the absorbtion of the untreated (0 μm) cells (=100%). The IC50 values were determined by means of a 4 parameter fit.

[3] = 10 μM ATP, read-out: Biological Assay 1: Bub1 kinase assay median IC50
[4] = Biological Assay 1: Bub1 kinase assay median IC50, 10 μM ATP

T1 sequence (O43683 704-1085): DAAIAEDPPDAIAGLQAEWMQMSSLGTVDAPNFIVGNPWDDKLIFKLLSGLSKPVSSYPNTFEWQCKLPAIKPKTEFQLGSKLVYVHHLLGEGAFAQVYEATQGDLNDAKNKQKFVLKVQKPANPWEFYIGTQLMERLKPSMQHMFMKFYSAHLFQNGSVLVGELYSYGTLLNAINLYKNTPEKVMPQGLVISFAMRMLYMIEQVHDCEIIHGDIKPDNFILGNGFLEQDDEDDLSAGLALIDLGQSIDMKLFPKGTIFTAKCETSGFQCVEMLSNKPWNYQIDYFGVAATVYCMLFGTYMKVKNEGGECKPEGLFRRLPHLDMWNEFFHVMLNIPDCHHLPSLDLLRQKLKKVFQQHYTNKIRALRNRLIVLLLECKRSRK
Sequence of Bub1 (O43683 whole entry): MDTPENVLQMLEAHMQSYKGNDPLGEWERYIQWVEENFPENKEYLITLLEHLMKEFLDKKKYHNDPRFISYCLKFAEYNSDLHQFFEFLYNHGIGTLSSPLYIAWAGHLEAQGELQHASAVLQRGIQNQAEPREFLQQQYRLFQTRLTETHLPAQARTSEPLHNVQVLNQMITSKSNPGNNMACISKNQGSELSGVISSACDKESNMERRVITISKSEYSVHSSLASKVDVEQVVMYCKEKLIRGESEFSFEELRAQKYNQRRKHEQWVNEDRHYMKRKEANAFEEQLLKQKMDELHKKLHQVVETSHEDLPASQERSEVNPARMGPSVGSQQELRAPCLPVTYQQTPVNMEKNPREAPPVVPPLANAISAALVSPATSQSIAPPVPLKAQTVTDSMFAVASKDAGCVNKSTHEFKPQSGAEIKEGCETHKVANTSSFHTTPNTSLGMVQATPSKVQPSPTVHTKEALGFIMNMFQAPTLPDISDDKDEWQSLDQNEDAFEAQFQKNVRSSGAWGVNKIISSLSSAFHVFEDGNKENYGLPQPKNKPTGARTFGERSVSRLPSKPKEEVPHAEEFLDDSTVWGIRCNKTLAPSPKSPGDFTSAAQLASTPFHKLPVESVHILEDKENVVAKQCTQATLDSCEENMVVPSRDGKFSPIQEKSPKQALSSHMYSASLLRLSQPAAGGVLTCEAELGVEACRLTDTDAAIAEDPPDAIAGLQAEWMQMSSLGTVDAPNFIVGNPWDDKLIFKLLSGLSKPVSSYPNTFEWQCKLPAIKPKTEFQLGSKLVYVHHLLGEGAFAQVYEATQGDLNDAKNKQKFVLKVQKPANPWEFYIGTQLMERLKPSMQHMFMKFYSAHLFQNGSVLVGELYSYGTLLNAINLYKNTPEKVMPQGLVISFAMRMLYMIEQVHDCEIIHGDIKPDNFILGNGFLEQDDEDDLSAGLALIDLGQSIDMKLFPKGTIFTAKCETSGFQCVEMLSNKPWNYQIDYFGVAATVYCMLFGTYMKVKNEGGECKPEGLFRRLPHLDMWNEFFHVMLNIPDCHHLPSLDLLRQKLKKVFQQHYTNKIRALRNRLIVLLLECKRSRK

CCOc1cc(F)c(Cn2nc(-c3ncc(CC4CNC4)c(Nc4ccnc(C(F)(F)F)c4)n3)c3ccccc32)c(F)c1 [Example 2-9-8]
IC50 [1, 3]: 440 nM | IC50 (Bub1): 14 nM | IC50 (HeLa): 1800 nM | IC50 [2]: 220 nM

CCOc1cc(F)c(Cn2nc(-c3ncc(CC4CNC4)c(Nc4ccnc(C(F)F)c4)n3)c3ccccc32)c(F)c1 [Example 2-9-9, 5-(azetidin-3-ylmethyl)-N-[2-(difluorometh-yl)pyridin-4-yl]-2-[1-(4-ethoxy-2,6-difluorobenzyl)-1H-indazol-3-yl]pyrimidin-4-amine, salt with hydrochloric acid]
IC50 [1, 3]: 52 nM | IC50 (Bub1): 2.7 nM | IC50 (HeLa): 2300 nM | IC50 [2]: 190 nM

CCOc1cc(F)c(Cn2nc(-c3ncc(CCN)c(Nc4ccnc(C(F)F)c4)n3)c3ccccc32)c(F)c1 [Example 2-9-10, 5-(2-aminoethyl)-N-[2-(difluorometh-yl)pyridin-4-yl]-2-[1-(4-ethoxy-2,6-difluorobenzyl)-1H-indazol-3-yl]pyrimidin-4-amine, salt with hydrochloric acid]
IC50 [1, 3]: 7.1 nM | IC50 (Bub1): 1500 nM | IC50 (HeLa): 1000 nM | IC50 [2]: 54 nM

CCOc1cc(F)c(Cn2nc(-c3ncc(CCN)c(Nc4ccnc(C(F)(F)F)c4)n3)c3ccccc32)c(F)c1 [Example 2-9-11, 5-(2-aminoethyl)-2-[1-(4-ethoxy-2,6-difluorobenzyl)-1H-indazol-3-yl]-N-[2-(trifluorometh-yl)pyridin-4-yl]pyrimidin-4-amine, salt with hydrochloric acid]
IC50 [1, 3]: 360 nM | IC50 (Bub1): 2.8 nM | IC50 (HeLa): 1100 nM | IC50 [2]: 110 nM

CCOc1cc(F)c(Cn2nc(-c3ncc(CCN)c(Nc4ccnc(NC(C)=O)c4)n3)c3ccccc32)c(F)c1 [Example 2-9-13, N-[4-({5-(2-aminoethyl)-2-[1-(4-ethoxy-2,6-difluorobenzyl)-1H-indazol-3-yl]pyrimidin-4-yl}amino)pyridin-2-yl]acetamide, salt with hydrochloric acid]
IC50 [1, 3]: 7.1 nM | IC50 (Bub1): 160 nM | IC50 (HeLa): 1000 nM | IC50 [2]: 150 nM

CCOc1cc(F)c(Cn2nc(-c3nc4c(c(Nc5ccncc5)n3)CNC4)c3ccccc32)c(F)c1 [Example 2-9-14, 2-[1-(4-ethoxy-2,6-difluorobenzyl)-1H-indazol-3-yl]-N-(pyridin-4-yl)-6,7-dihydro-5H-pyrrolo[3,4-d]pyrimidin-4-amine, salt with hydrochloric acid]
IC50 [1, 4]: 11 nM | IC50 (Bub1): 11 nM | IC50 (HeLa): 4300 nM | IC50 [2]: 170 nM

CCOc1cc(F)c(Cn2nc(-c3nc4c(c(Nc5ccnc(C(F)(F)F)c5)n3)CNC4)c3ccccc32)c(F)c1 [Example 2-9-15, 2-[1-(4-ethoxy-2,6-difluorobenzyl)-1H-indazol-3-yl]-N-[2-(trifluoro-methyl)pyridin-4-yl]-6,7-dihydro-5H-pyrrolo[3,4-d]pyrimidin-4-amine, salt with hydrochloric acid]
IC50 [1, 4]: 3300 nM | IC50 (Bub1): 2.8 nM | IC50 (HeLa): 4000 nM | IC50 [2]: 340 nM

CCOc1cc(F)c(Cn2nc(-c3ncc(CC(C)(C)N)c(Nc4ccncc4)n3)c3ccccc32)c(F)c1 [Example 2-9-18, 5-(2-amino-2-methylpropyl)-2-[1-(4-ethoxy-2,6-difluorobenzyl)-1H-indazol-3-yl]-N-(pyridin-4-yl)pyrimidin-4-amine, salt with hydrochloric acid]
IC50 [1, 3]: 15 nM | IC50 (Bub1): 6.7 nM | IC50 (HeLa): 5500 nM | IC50 [2]: 170 nM

CCOc1cc(F)c(Cn2nc(-c3ncc(CCCOC)c(Nc4ccncc4C(N)=O)n3)c3ccccc32)c(F)c1 [Example 2-10-1, 4-({2-[1-(4-ethoxy-2,6-difluorobenzyl)-1H-indazol-3-yl]-5-(3-methoxypropyl)pyrimidin-4-yl}amino)nicotinamide]
IC50 [1, 4]: 11 nM | IC50 (Bub1): 3400 nM | IC50 (HeLa): > 10000 nM | IC50 [2]: 1300 nM

CCOc1cc(F)c(Cn2nc(-c3ncc(CC4CN(CC(F)(F)F)C4)c(Nc4ccncc4)n3)c3ccccc32)c(F)c1 [Example 2-11-1, 2-[1-(4-ethoxy-2,6-difluorobenzyl)-1H-indazol-3-yl]-N-(pyridin-4-yl)-5-{[1-(2,2,2-trifluoroethyl)azetidin-3-yl]methyl}pyrimidin-4-amine]
IC50 [1, 4]: 62 nM | IC50 (Bub1): 41 nM | IC50 (HeLa): > 10000 nM | IC50 [2]: 230 nM

CCOc1cc(F)c(Cn2nc(-c3ncc4c(n3)N(c3ccncc3)C[C@H]4CNCC(F)(F)F)c3ccccc32)c(F)c1 [Example 2-11-3, N-({2-[1-(4-ethoxy-2,6-difluorobenzyl)-1H-indazol-3-yl]-7-(pyridin-4-yl)-6,7-dihydro-5H-pyrrolo[2,3d]pyr-imidin-5-yl}methyl)-2,2,2-trifluoroethanamine]
IC50 [1, 4]: 12 nM | IC50 (Bub1): 93 nM | IC50 (HeLa): 3000 nM | IC50 [2]: 100 nM

CCOc1cc(F)c(Cn2nc(-c3nc4c(c(Nc5ccncc5)n3)CCC4)c3ccccc32)c(F)c1 [Example 2-12-2, 2-[1-(4-ethoxy-2,6-difluorobenzyl)-1H-indazol-3-yl]-N-(pyridin-4-yl)-6,7-dihydro-5H-cyclopenta[d]pyrimidin-4-amine]
IC50 [1, 3]: 12 nM | IC50 (Bub1): 180 nM | IC50 (HeLa): 2100 nM | IC50 [2]: 390 nM

CCOc1cc(F)c(Cn2nc(-c3nc(Nc4ccncc4)cc(C(C)C)n3)c3ccccc32)c(F)c1 [Example 2-12-3, 2-[1-(4-ethoxy-2,6-difluorobenzyl)-1H-indazol-3-yl]-6-(propan-2-yl)-N-(pyridin-4-yl)pyrimidin-4-amine]
IC50 [1, 4]: 17 nM | IC50 (Bub1): 34 nM | IC50 (HeLa): 4900 nM | IC50 [2]: 1400 nM

CCOc1cc(F)c(Cn2nc(-c3nc(COC)cc(Nc4ccncc4)n3)c3ccccc32)c(F)c1 [Example 2-12-4, 2-[1-(4-ethoxy-2,6-difluorobenzyl)-1H-indazol-3-yl]-6-(methoxymethyl)-N-(pyridin-4-yl)pyrimidin-4-amine]
IC50 [1, 4]: 5.2 nM | IC50 (Bub1): 8.9 nM | IC50 (HeLa): 1800 nM | IC50 [2]: 420 nM

CCOc1cc(F)c(Cn2nc(-c3nc(C)c(F)c(Nc4ccncc4)n3)c3ccccc32)c(F)c1 [Example 2-12-5, 2-[1-(4-ethoxy-2,6-difluorobenzyl)-1H-indazol-3-yl]-5-fluoro-6-methyl-N-(pyridin-4-yl)pyrimidin-4-amine]
IC50 [1, 3]: 6.5 nM | IC50 (Bub1): 390 nM | IC50 (HeLa): 1300 nM | IC50 [2]: 920 nM

CCOc1cc(F)c(Cn2nc(-c3nc4c(c(Nc5ccnc(C)c5)n3)CCC4)c3ccccc32)c(F)c1 [Example 2-12-6, 2-[1-(4-ethoxy-2,6-difluorobenzyl)-1H-indazol-3-yl]-N-(2-methylpyridin-4-yl)-6,7-dihydro-5H-cyclopenta[d]pyrimidin-4-amine]
IC50 [1, 3]: 11 nM | IC50 (Bub1): 6 nM | IC50 (HeLa): 1200 nM | IC50 [2]: 330 nM

CCOc1cc(F)c(Cn2nc(-c3nc(CC)cc(Nc4ccncc4)n3)c3ccccc32)c(F)c1 [Example 2-12-9, 2-[1-(4-ethoxy-2,6-difluorobenzyl)-1H-indazol-3-yl]-6-ethyl-N-(pyridin-4-yl)pyrimidin-4-amine]
IC50 [1, 4]: 21 nM | IC50 (Bub1): 11 nM | IC50 (HeLa): 3700 nM | IC50 [2]: 540 nM

CCOc1cc(F)c(Cn2nc(-c3nc(CN4CCOCC4)cc(Nc4ccncc4)n3)c3ccccc32)c(F)c1 [Example 2-12-12, 2-[1-(4-ethoxy-2,6-difluorobenzyl)-1H-indazol-3-yl]-6-(morpholin-4-ylmethyl)-N-(pyridin-4-yl)pyrimidin-4-amine]
IC50 [1, 3]: 6.8 nM | IC50 (Bub1): 3.6 nM | IC50 (HeLa): 3600 nM | IC50 [2]: < 100 nM

CCOc1cc(F)c(Cn2nc(-c3nc(CN4CCOCC4)cc(Nc4ccncc4C)n3)c3ccccc32)c(F)c1 [Example 2-12-13, 2-[1-(4-ethoxy-2,6-difluorobenzyl)-1H-indazol-3-yl]-N-(3-methylpyridin-4-yl)-6-(morpholin-4-ylmethyl)pyrimidin-4-amine]
IC50 [1, 3]: 6 nM | IC50 (Bub1): 6.6 nM | IC50 (HeLa): 3400 nM | IC50 [2]: 89 nM

CCOc1cc(F)c(Cn2nc(-c3nc(CN4CCOCC4)cc(Nc4ccnc(NC(C)=O)c4)n3)c3ccccc32)c(F)c1 [Example 2-12-14, N-[4-({2-[1-(4-ethoxy-2,6-difluorobenzyl)-1H-indazol-3-yl]-6-(morpholin-4-ylmethyl)pyrimidin-4-yl}amino)pyridin-2-yl]acetamide]
IC50 [1, 3]: 8.8 nM | IC50 (Bub1): 11 nM | IC50 (HeLa): 1800 nM | IC50 [2]: 100 nM

CCOc1cc(F)c(Cn2nc(-c3nc4c(c(Nc5ccncc5C)n3)CCN(Cc3ccccc3)C4)c3ccccc32)c(F)c1 [Example 2-12-16, 7-benzyl-2-[1-(4-ethoxy-2,6-difluorobenzyl)-1H-indazol-3-yl]-N-(3-methylpyridin-4-yl)-5,6,7,8-tetrahydropyrido[3,4-d]pyrimidin-4-amine]
IC50 [1, 4]: 290 nM | IC50 (Bub1): 57 nM | IC50 (HeLa): 1000 nM | IC50 [2]: 130 nM

CCOc1cc(F)c(Cn2nc(-c3nc4c(c(Nc5ccnc(NC(C)=O)c5)n3)CCC4)c3ccccc32)c(F)c1 [Example 2-12-18, N-[4-({2-[1-(4-ethoxy-2,6-difluorobenzyl)-1H-indazol-3-yl]-6,7-dihydro-5H-cyclopenta[d]pyrimidin-4-yl}amino)pyridin-2-yl]acetamide]
IC50 [1, 3]: 8.4 nM | IC50 (Bub1): 4.1 nM | IC50 (HeLa): 2000 nM | IC50 [2]: 250 nM
